Results published in ChEMBL document CHEMBL3804794, “Design, synthesis and biological evaluation of pyrazol-furan carboxamide analogues as novel Akt kinase inhibitors” (Eur J Med Chem, 2016).

Assays:
[1] = Antiproliferative activity against human OVCAR8 cells after 72 hrs by SRB assay; assay type: functional, cell-based; details: OVCAR-8, 72 h
[2] = target: T1, RAC-alpha serine/threonine-protein kinase (Homo sapiens, UniProt P31749); test: Inhibition of Akt1 (unknown origin) expressed in Escherichia coli using peptide substrate after 1 hr by HTRF assay
[3] = Antiproliferative activity against human HCT116 cells after 72 hrs by SRB assay; assay type: functional, cell-based; details: HCT-116, 72 h
[4] = target: T1, RAC-alpha serine/threonine-protein kinase; test: Inhibition of Akt1 (unknown origin) expressed in Escherichia coli at 1 ug/ml using peptide substrate after 1 hr by HTRF assay
[5] = target: T2, Testis-specific serine/threonine-protein kinase 1 (Mus musculus, UniProt Q61241); test: Inhibition of mouse TSSK1 by luminescent ADP-Glo assay kit
T2 sequence (Q61241 whole entry): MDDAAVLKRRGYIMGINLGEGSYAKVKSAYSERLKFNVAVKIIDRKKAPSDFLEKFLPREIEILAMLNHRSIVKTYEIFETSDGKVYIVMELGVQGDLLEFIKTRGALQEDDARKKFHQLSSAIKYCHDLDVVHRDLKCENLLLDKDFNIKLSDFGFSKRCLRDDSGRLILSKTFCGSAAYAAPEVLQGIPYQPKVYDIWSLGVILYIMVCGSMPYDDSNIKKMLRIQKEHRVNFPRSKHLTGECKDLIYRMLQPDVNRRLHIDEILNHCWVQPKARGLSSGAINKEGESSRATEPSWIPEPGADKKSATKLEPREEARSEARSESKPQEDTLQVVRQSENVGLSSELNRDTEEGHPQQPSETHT

[6] = Inhibition of PKA (unknown origin) after 60 mins by Z-LYTE kinase assay; design: species or system Homo sapiens
[7] = Effect on total GAPDH levels in human PC3 cells at 1 to 10 uM after 3 hrs by western blot analysis; assay type: ADME, cell-based; details: pc-3, 3 h
[8] = Effect on total Akt levels in human PC3 cells at 1 to 10 uM after 3 hrs by western blot analysis; assay type: ADME, cell-based; details: pc-3, 3 h
[9] = Inhibition of Akt in human PTEN-null LNCAP cells assessed as suppression in PRAS40 phosphorylation after 1 hr by ELISA analysis; assay type: cell-based
[10] = Effect on total GSK3beta levels in human PC3 cells at 1 to 10 uM after 3 hrs by western blot analysis; assay type: ADME, cell-based; details: pc-3, 3 h

T1 sequence (P31749 whole entry): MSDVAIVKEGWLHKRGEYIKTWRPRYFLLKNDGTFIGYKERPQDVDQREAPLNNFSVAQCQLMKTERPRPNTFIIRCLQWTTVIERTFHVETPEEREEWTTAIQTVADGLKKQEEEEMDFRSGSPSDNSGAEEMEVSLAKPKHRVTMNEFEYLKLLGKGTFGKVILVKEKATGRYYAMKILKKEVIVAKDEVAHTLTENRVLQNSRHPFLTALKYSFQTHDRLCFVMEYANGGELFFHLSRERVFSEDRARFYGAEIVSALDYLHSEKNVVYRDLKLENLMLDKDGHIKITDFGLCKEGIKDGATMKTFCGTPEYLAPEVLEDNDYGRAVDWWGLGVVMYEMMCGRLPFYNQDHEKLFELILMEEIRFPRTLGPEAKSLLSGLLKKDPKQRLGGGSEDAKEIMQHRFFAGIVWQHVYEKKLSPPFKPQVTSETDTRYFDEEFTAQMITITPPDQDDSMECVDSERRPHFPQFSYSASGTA

| IC50 [2] [µM] | SMILES | IC50 [1] [µM] | IC50 [3] [µM] | other results |
| --- | --- | --- | --- | --- |
| 0.36 | Cn1ncc(Br)c1-c1csc(C(=O)NC2(c3ccc(F)cc3)CCNCC2)c1 | 7.78 | 17.5 |  |
|  | Cn1ncc(Br)c1-c1cc(C(=O)NC2(c3ccc(Cl)c(Cl)c3)CCNCC2)n(C)c1Br | 4.7 | 7.75 | inhibition [4]: 30.3% |
| 0.44 | Cn1ncc(Br)c1-c1coc(C(=O)NC2(c3ccc(Cl)c(Cl)c3)CCNCC2)c1 | 3.77 | 4 |  |
| 1.4 | Cn1ncc(Br)c1-c1ccc(C(=O)NC2(c3ccc(Cl)c(Cl)c3)CCNCC2)cc1 | 1.96 | 11 |  |
|  | Cn1ncc(Br)c1-c1oc(C(=O)NC2(c3ccc(Cl)c(Cl)c3)CCNCC2)cc1Br | 5.81 | 16.4 | inhibition [4]: 43.5% |
| 0.92 | Cn1nccc1-c1csc(C(=O)NC2(c3ccc(F)cc3)CCNCC2)c1 | 14.3 | 24.8 |  |
|  | CN[C@@H]1C[C@H]2O[C@@](C)([C@@H]1OC)n1c3ccccc3c3c4c(c5c6ccccc6n2c5c31)C(=O)NC4 [STAUROSPORINE] |  |  | IC50 [5]: 0.00033 µM; IC50 [6]: 0.0082 µM |
| 0.39 | Cn1ncc(Cl)c1-c1cc(C(=O)NC2(c3ccc(F)cc3)CCNCC2)oc1Cl | 4.81 | 6.47 |  |
| 1.26 | Cn1cc(-c2c(Br)cnn2C)cc1C(=O)NC1(c2ccc(Cl)c(Cl)c2)CCNCC1 | 2.83 | 12.9 |  |
| 0.061 | Cn1ncc(Cl)c1-c1cc(C(=O)NC2(c3ccc(Cl)c(Cl)c3)CCNCC2)oc1Cl | 9.76 | 7.76 | Activity [7]: Non-toxic; Activity [8]: Non-toxic; IC50 [9]: 0.0304 µM; Activity [10]: Non-toxic |
| 0.92 | Cn1ncc(Cl)c1-c1coc(C(=O)NC2(c3ccc(F)cc3)CCNCC2)c1 | 6.46 | 10.1 |  |
| 0.32 | Cn1ncc(Cl)c1-c1csc(C(=O)NC2(c3ccc(F)cc3)CCNCC2)c1 | 8.19 | 18.3 |  |
|  | Cn1ncc(Cl)c1-c1cc(C(=O)N[C@H](CN)Cc2ccc(F)c(F)c2)oc1Cl [UPROSERTIB] |  |  | IC50 [9]: 0.0756 µM |
|  | NC1(C(=O)N[C@@H](CCO)c2ccc(Cl)cc2)CCN(c2nc[nH]c3nccc2-3)CC1 [CAPIVASERTIB] | 7.27 | 5.2 | IC50 [9]: 0.337 µM |
| 2.02 | Cn1ncc(Br)c1-c1coc(C(=O)NC2(c3ccc(F)cc3)CCNCC2)c1 | 20.1 | 18.1 |  |
| 0.85 | Cn1ncc(Cl)c1-c1c(Cl)c(C(=O)NC2(c3ccc(Cl)c(Cl)c3)CCNCC2)n(C)c1Cl | 1.77 | 9.28 |  |
| 1.91 | Cn1ncc(Cl)c1-c1ccc(C(=O)NC2(c3ccc(Cl)c(Cl)c3)CCNCC2)cc1 | 5.21 | 11.9 |  |
|  | Cn1nccc1-c1oc(C(=O)NC2(c3ccc(Cl)c(Cl)c3)CCNCC2)cc1Br | 6.87 | 24.8 | inhibition [4]: 49.4% |
| 1.48 | Cn1ncc(Cl)c1-c1oc(C(=O)NC2(c3ccc(Cl)c(Cl)c3)CCNCC2)cc1Br | 5.95 | 6.97 |  |
| 0.071 | Cn1nccc1-c1csc(C(=O)NC2(c3ccc(Cl)c(Cl)c3)CCNCC2)c1 | 1.61 | 3.92 |  |
